# What was measured:
# [1] = system: Escherichia coli; assay: Minimum inhibitory activity against Escherichia coli GC 4560; assay type: functional
# [2] = Minimum inhibitory activity against MSCNS GC 646; assay type: functional; settings: Staphylococcus
# [3] = system: Staphylococcus aureus; assay: Minimum inhibitory activity against Staphylococcus aureus GC 1131 (MRSA); assay type: functional
# [4] = target: T1, UDP-N-acetylmuramoylalanine--D-glutamate ligase (Staphylococcus aureus, UniProt P0A091); assay: In vitro inhibitory activity against Staphylococcus aureus UDP-N-acetylmuramoyl-L-alanyl-D-glutamate synthetase
# T1 sequence (P0A091 whole entry): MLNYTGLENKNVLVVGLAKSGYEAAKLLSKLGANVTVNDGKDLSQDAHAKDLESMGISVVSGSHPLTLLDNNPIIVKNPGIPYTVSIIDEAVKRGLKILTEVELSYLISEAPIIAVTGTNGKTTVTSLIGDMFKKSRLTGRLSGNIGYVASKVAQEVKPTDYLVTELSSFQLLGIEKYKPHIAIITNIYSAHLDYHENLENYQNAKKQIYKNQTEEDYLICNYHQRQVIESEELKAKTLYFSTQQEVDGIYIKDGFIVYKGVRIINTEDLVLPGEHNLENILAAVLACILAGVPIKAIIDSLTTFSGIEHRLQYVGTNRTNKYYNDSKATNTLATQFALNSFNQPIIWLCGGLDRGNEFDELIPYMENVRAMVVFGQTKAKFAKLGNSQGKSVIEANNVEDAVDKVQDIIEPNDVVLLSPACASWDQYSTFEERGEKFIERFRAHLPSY
# [5] = Minimum inhibitory activity against Streptococcus pneumoniae GC1894 (PRSP); assay type: functional
# [6] = target: T2, UDP-N-acetylenolpyruvoylglucosamine reductase (Staphylococcus aureus, UniProt P61431); assay: In vitro inhibitory activity against Staphylococcus aureus UDP-N-acetylmuramate dehydrogenase
# T2 sequence (P61431 whole entry): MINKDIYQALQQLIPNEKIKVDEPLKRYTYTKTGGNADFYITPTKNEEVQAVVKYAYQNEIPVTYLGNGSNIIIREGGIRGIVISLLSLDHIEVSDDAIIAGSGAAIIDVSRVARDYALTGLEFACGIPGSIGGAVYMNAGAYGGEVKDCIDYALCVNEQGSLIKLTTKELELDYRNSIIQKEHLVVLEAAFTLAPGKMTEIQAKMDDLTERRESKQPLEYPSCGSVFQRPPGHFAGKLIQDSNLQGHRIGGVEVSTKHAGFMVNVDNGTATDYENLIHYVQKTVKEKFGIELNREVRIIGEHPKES
# [7] = Minimum inhibitory activity in presence of 4% bovine serum albumin against Streptococcus pneumoniae GC1894 (PRSP); assay type: functional
# [8] = system: Enterococcus faecalis; assay: Minimum inhibitory activity against Enterococcus faecalis GC 4555 (ATCC); assay type: functional
# [9] = system: Enterococcus faecalis; assay: Minimum inhibitory activity against Enterococcus faecalis GC 2242 (VRE); assay type: functional
# [10] = system: Staphylococcus aureus; assay: Minimum inhibitory activity against Staphylococcus aureus GC 2216 (ATCC); assay type: functional
# [11] = system: Staphylococcus aureus; assay: Minimum inhibitory activity against Staphylococcus aureus GC 4543 (MSSA); assay type: functional
# [12] = system: Escherichia coli; assay: Minimum inhibitory activity against Escherichia coli GC 4559; assay type: functional
# [13] = target: T3, UDP-N-acetylmuramate--L-alanine ligase (Staphylococcus aureus, UniProt O31211); assay: In vitro inhibitory activity against Staphylococcus aureus UDP-N-acetylmuramoyl-L-alanine synthetase
# T3 sequence (O31211 whole entry): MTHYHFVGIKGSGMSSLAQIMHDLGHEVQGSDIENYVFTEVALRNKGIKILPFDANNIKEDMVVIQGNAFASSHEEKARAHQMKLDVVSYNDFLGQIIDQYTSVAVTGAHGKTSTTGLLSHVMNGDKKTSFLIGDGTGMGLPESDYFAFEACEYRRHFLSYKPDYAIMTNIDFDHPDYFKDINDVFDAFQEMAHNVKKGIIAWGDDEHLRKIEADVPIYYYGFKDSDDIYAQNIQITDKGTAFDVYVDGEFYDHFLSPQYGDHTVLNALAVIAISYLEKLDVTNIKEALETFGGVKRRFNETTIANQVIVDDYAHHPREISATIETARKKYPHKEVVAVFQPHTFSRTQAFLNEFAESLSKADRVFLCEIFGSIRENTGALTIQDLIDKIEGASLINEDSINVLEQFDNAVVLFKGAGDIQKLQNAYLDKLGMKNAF
# [14] = Partition coefficient (logP); assay type: physicochemical; settings: octanol/water
# [15] = system: Bacteria; assay: Minimum inhibitory activity against gram negative bacteria; assay type: functional
MIC [1] [µg/mL],MIC [2] [µg/mL],MIC [3] [µg/mL],IC50 [4] [µM],MIC [5] [µg/mL],IC50 [6] [µM],MIC [7] [µg/mL],MIC [8] [µg/mL],MIC [9] [µg/mL],MIC [10] [µg/mL],MIC [11] [µg/mL],MIC [12] [µg/mL],IC50 [13] [µM],logP [14],MIC [15] [µg/mL],SMILES
128,128,128,74.5,64,33.5,> 128,> 128,64,64,128,> 128,> 76,,,Oc1c2c(nn1-c1ccc(Cl)cc1)CC(c1ccccc1)S2 (stereo not drawn)
> 128,1,16,30.3,1,12.1,> 128,16,32,2,4,> 128,38.4,,,Oc1c2c(nn1-c1ccc(Br)cc1)CCS2
> 128,128,128,> 96,32,> 96,> 128,> 128,> 128,128,128,> 128,> 96,,,CC(C)c1ccc(-n2nc3c(c2O)SCC3)cc1
128,2,4,67.1,0.5,73.4,> 128,16,8,2,1,> 128,> 87.3,,,Oc1c2c(nn1-c1cccc(C(F)(F)F)c1)CCS2
> 128,4,16,45.5,1,28.1,> 128,16,16,2,2,> 128,40,3.06,,Oc1c2c(nn1-c1ccc(Cl)cc1)CCS2
128,64,32,> 87.3,8,> 87.3,> 128,32,16,32,32,> 128,> 87.3,,,Oc1c2c(nn1-c1ccccc1C(F)(F)F)CCS2
,,,,,831,,,,,,,,,> 128,Oc1c2c(nn1-c1ccc(Cl)cc1)CSC2
> 128,> 128,> 128,> 91.1,64,> 91.1,> 128,> 128,> 128,> 128,128,> 128,> 91.1,,,CC(C)(C)c1ccc(-n2nc3c(c2O)SCC3)cc1
32,0.25,2,> 106,2,50.8,> 128,8,8,2,4,> 128,> 106,,,Oc1c2c(nn1-c1ccc(F)cc1)CCS2
> 128,32,32,34.6,4,23.5,> 128,64,32,16,32,> 128,87.7,,,O=[N+]([O-])c1cccc(-n2nc3c(c2O)SCC3)c1
128,4,8,43,0.5,38.4,> 128,16,8,2,1,> 128,> 87.3,,,Oc1c2c(nn1-c1ccc(C(F)(F)F)cc1)CCS2

SMILES,MIC [1] [µg/mL],MIC [2] [µg/mL],MIC [3] [µg/mL],IC50 [4] [µM],MIC [5] [µg/mL],IC50 [6] [µM],MIC [7] [µg/mL],MIC [8] [µg/mL],MIC [9] [µg/mL],MIC [10] [µg/mL],MIC [11] [µg/mL],MIC [12] [µg/mL],IC50 [13] [µM],logP [14],MIC [15] [µg/mL]
CN[C@H](CC(C)C)C(=O)N[C@H]1C(=O)N[C@@H](CC(N)=O)C(=O)N[C@H]2C(=O)N[C@H]3C(=O)N[C@H](C(=O)N[C@H](C(=O)O)c4cc(O)cc(O)c4-c4cc3ccc4O)[C@H](O)c3ccc(c(Cl)c3)Oc3cc2cc(c3O[C@@H]2O[C@H](CO)[C@@H](O)[C@H](O)[C@H]2O[C@H]2C[C@](C)(N)[C@H](O)[C@H](C)O2)Oc2ccc(cc2Cl)[C@H]1O [VANCOMYCIN],0.25,,,,< 0.12,,,2,> 128,,,> 128,,,
